Reference: US10413505B1, “Pharmaceutical compositions and methods of using the same” (priority 2017, dated 2019)
Structures can show the parent of a compound that is named as a salt.

Tested on: healthy adult subjects
Experiment: Example 11 ECG (QT/QTc) crossover study
Method: This was a single-dose, partially blinded, randomized, four-period, four-treatment, crossover study in which 24 healthy adult subjects received separate single doses of cocaine topical solution (8%), cocaine topical solution (4%), placebo, and moxifloxacin HCl tablet (400 mg) in four study periods. Each subject received a different treatment in each study period. Subjects received each of the following treatments in randomized fashion during the four treatment periods: (1) Treatment A: Cocaine hydrochloride, USP, topical solution, 8%; Dose=320 mg (80 mg/mL×4 mL); (2) Treatment B: Cocaine hydrochloride, USP, topical solution, 4%; Dose=160 mg (40 mg/mL×4 mL); (3) Treatment C: Placebo; and (4) Treatment D: AVELOX® (moxifloxacin hydrochloride); Dose=400 mg (1×400 mg tablet).
Treatments A, B, and C were blinded, while Treatment D was open label. Each drug administration was separated by a washout period of at least 4 days. […] Moxifloxacin HCl was orally administered along with approximately 240 mL (8 fl oz) of room temperature water.
A 25-hour continuous 12-lead ECG recording was performed on Day 1, starting 1 hour before dosing. At the designated time points, up to 10 replicate ECGs were extracted and intervals were measured using the High Precision QT technique. […] During protocol-specified ECG extraction windows, 10-second digital 12-lead ECG tracings were extracted from continuous recordings (preceded by a 10-minute supine rest period) at the following time points: predose (3 time points) and 20 minutes (end of cocaine dose; immediately after pledget removal), 40 minutes, and at 1, 1.25, 1.5, 2, 2.5, 3, 4, 6, 8, 12, and 24 hours after pledget insertion/moxifloxacin dosing.
The primary ECG endpoint was ΔQTcF. ΔQTcF is the QTc corrected for heart rate by the Fridericia method. The term “QTc”, as used herein, refers to the duration of the QT interval adjusted for the patient's heart rate.
The secondary ECG endpoints were: change-from-baseline heart rate (“HR”), time from beginning of the P-wave to the beginning of the next QRS complex (“PR”), deflections in the tracing of the electrocardiogram comprising the Q, R, and S waves that represent depolarization of the ventricles (“QRS”), time elapsed between two consecutive R waves (“RR”), and measure of the time in the tracing of the electrocardiogram between the start of the Q-wave and the end of the T-wave (“QT”); and T-wave morphological changes.

[1] = 400 mg, 20 min post-dose, QT/QTc Population
[2] = 400 mg, 40 min post-dose, QT/QTc Population
[3] = 400 mg, 1 hour post-dose, QT/QTc Population
[4] = 400 mg, 1.25 hour post-dose, QT/QTc Population
[5] = 400 mg, 1.5 hour post-dose, QT/QTc Population
[6] = 400 mg, 2 hours post-dose, QT/QTc Population
[7] = 400 mg, 3 hours post-dose, QT/QTc Population
[8] = 400 mg, 4 hours post-dose, QT/QTc Population
[9] = 400 mg, 6 hours post-dose, QT/QTc Population
[10] = 400 mg, 8 hours post-dose, QT/QTc Population
[11] = 400 mg, 12 hours post-dose, QT/QTc Population
[12] = 400 mg, 24 hours post-dose, QT/QTc Population

With `COc1c(N2C[C@@H]3CCCN[C@@H]3C2)c(F)cc2c(=O)c(C(=O)O)cn(C3CC3)c12` [moxifloxacin HCl, moxifloxacin hydrochloride] the “peak ΔQTcF” value (400 mg oral, 4 hours post-dosing) was 14.4 ms, the “peak ΔΔQTcF” value (400 mg oral, 4 h post-dose) was 15.2 ms and the “ΔPR, change-from-baseline PR, LSMean” value [1] was 1.1 ms. For the same molecule, the “ΔQRS, change-from-baseline QRS, LSMean” value [1] was -0.5 ms, the “ΔQT, change-from-baseline QT, LSMean” value [1] was -5.3 ms and the “ΔRR, change-from-baseline RR, LSMean” value [1] was -18.8 ms. For the same molecule, the “ΔΔPR, placebo-corrected change-from-baseline PR, LSMean” value [1] was 2.1 ms, the “ΔPR, change-from-baseline PR, LSMean” value [2] was 1.4 ms and the “ΔQRS, change-from-baseline QRS, LSMean” value [2] was -0.5 ms. For the same molecule, the “ΔQT, change-from-baseline QT, LSMean” value [2] was 2.2 ms, the “ΔRR, change-from-baseline RR, LSMean” value [2] was -15.8 ms and the “ΔΔPR, placebo-corrected change-from-baseline PR, LSMean” value [2] was 0.1 ms. The “ΔPR, change-from-baseline PR, LSMean” value [3] was 0.8 ms, the “ΔQRS, change-from-baseline QRS, LSMean” value [3] was -0.4 ms and the “ΔQT, change-from-baseline QT, LSMean” value [3] was 3.9 ms. The “ΔRR, change-from-baseline RR, LSMean” value [3] was -24.5 ms, the “ΔΔPR, placebo-corrected change-from-baseline PR, LSMean” value [3] was 0.1 ms and the “ΔPR, change-from-baseline PR, LSMean” value [4] was 0.5 ms. The “ΔQRS, change-from-baseline QRS, LSMean” value [4] was 0.2 ms, the “ΔQT, change-from-baseline QT, LSMean” value [4] was 3.9 ms and the “ΔRR, change-from-baseline RR, LSMean” value [4] was -35.1 ms. For the same molecule, the “ΔΔPR, placebo-corrected change-from-baseline PR, LSMean” value [4] was -0.2 ms, the “ΔPR, change-from-baseline PR, LSMean” value [5] was -0.7 ms and the “ΔQRS, change-from-baseline QRS, LSMean” value [5] was 0.0 ms. The “ΔQT, change-from-baseline QT, LSMean” value [5] was 0.8 ms, the “ΔRR, change-from-baseline RR, LSMean” value [5] was -58.5 ms and the “ΔΔPR, placebo-corrected change-from-baseline PR, LSMean” value [5] was -1.9 ms. For the same molecule, the “ΔPR, change-from-baseline PR, LSMean” value [6] was 0.2 ms, the “ΔQRS, change-from-baseline QRS, LSMean” value [6] was 0.0 ms and the “ΔQT, change-from-baseline QT, LSMean” value [6] was 4.2 ms. The “ΔRR, change-from-baseline RR, LSMean” value [6] was -33.8 ms, the “ΔΔPR, placebo-corrected change-from-baseline PR, LSMean” value [6] was 0.2 ms and the “ΔPR, change-from-baseline PR, LSMean” value [7] was -2.1 ms. For the same molecule, the “ΔQRS, change-from-baseline QRS, LSMean” value [7] was 0.0 ms, the “ΔQT, change-from-baseline QT, LSMean” value [7] was 7.5 ms and the “ΔRR, change-from-baseline RR, LSMean” value [7] was -41.1 ms. For the same molecule, the “ΔΔPR, placebo-corrected change-from-baseline PR, LSMean” value [7] was -2.1 ms, the “ΔPR, change-from-baseline PR, LSMean” value [8] was -1.5 ms and the “ΔQRS, change-from-baseline QRS, LSMean” value [8] was -0.0 ms. The “ΔQT, change-from-baseline QT, LSMean” value [8] was 6.7 ms, the “ΔRR, change-from-baseline RR, LSMean” value [8] was -121.3 ms and the “ΔΔPR, placebo-corrected change-from-baseline PR, LSMean” value [8] was -1.4 ms. For the same molecule, the “ΔPR, change-from-baseline PR, LSMean” value [9] was -4.2 ms, the “ΔQRS, change-from-baseline QRS, LSMean” value [9] was -0.5 ms and the “ΔQT, change-from-baseline QT, LSMean” value [9] was -9.5 ms. The “ΔRR, change-from-baseline RR, LSMean” value [9] was -121.3 ms, the “ΔΔPR, placebo-corrected change-from-baseline PR, LSMean” value [9] was -2.6 ms and the “ΔPR, change-from-baseline PR, LSMean” value [10] was -5.2 ms. The “ΔQRS, change-from-baseline QRS, LSMean” value [10] was -0.5 ms, the “ΔQT, change-from-baseline QT, LSMean” value [10] was -7.6 ms and the “ΔRR, change-from-baseline RR, LSMean” value [10] was -88.8 ms. For the same molecule, the “ΔΔPR, placebo-corrected change-from-baseline PR, LSMean” value [10] was -1.4 ms, the “ΔPR, change-from-baseline PR, LSMean” value [11] was -4.7 ms and the “ΔQRS, change-from-baseline QRS, LSMean” value [11] was -0.0 ms. For the same molecule, the “ΔQT, change-from-baseline QT, LSMean” value [11] was -14.0 ms, the “ΔRR, change-from-baseline RR, LSMean” value [11] was -151.8 ms and the “ΔΔPR, placebo-corrected change-from-baseline PR, LSMean” value [11] was -3.9 ms. For the same molecule, the “ΔPR, change-from-baseline PR, LSMean” value [12] was -0.9 ms, the “ΔQRS, change-from-baseline QRS, LSMean” value [12] was 0.1 ms and the “ΔQT, change-from-baseline QT, LSMean” value [12] was -6.6 ms. The “ΔRR, change-from-baseline RR, LSMean” value [12] was -65.8 ms, the “ΔΔPR, placebo-corrected change-from-baseline PR, LSMean” value [12] was 1.7 ms and the “T-wave morphology treatment emergent changes: Biphasic, Subject count” value (400 mg, QT/QTc Population) was 0. For the same molecule, the “T-wave morphology treatment emergent changes: Biphasic, Timepoint count” value (400 mg, QT/QTc Population) was 0.
